Reference: patent publication US12070447B2, “Parenteral liquid preparation comprising carbamate compound” (SK BIOPHARMACEUTICALS CO., LTD., priority 2016, dated 2024)
Converted amounts (≈) assume the structure as drawn. Where two headings read alike, the source gives them in different places.

Legend:
[1] = Saturation solubility according to the concentration of cyclodextrin derivative; type: physicochemical; conditions: for solubility at 6 h: aqueous with cosolvent or surfactant or cyclodextrin; for solubility at 6 h / solubility: thermodynamic from solid, water for injection, room temperature; for solubility: water for injection without cyclodextrin, water, 0 % W/V cyclodextrin derivative (Comparative Example, no cyclodextrin)
Method: 2-Hydroxypropyl-β-cyclodextrin (trade name: Cavitron) and sulfobutyl ether-β-cyclodextrin sodium salt (trade name: Captisol) as cyclodextrin compounds were each dissolved in water for injection at various concentrations as shown in Table 1. To this was added an excess amount of carbamic acid (R)-1-(2-chlorophenyl)-2-tetrazol-2-yl)ethyl ester, and the mixture was stirred at room temperature for 6 hours. The mixture was then filtered through a membrane filter to remove insolubles, and the amount of carbamic acid (R)-1-(2-chlorophenyl)-2-tetrazol-2-yl)ethyl ester in the filtrate was measured by high performance liquid chromatography, by which the saturation solubility was calculated. The column used in this experiment was a 75×4.6 mm, 3.5 μm C18 column, and the mobile phase was a mixed solution of 20% by volume of acetonitrile and 80% by volume of 10 mM phosphate buffer (pH 3.0). The flow rate was 2.0 mL/min, and detection was performed at 215 nm.
As a comparative example, the saturation solubility of carbamic acid (R)-1-(2-chlorophenyl)-2-tetrazol-2-yl)ethyl ester to which no cyclodextrin compound had been added was measured at room temperature.
The calculated saturation solubility values are shown in Table 1, and the same results are shown graphically in FIG. 1.

[2] = Saturation solubility according to pH change; type: physicochemical; conditions: for solubility at 12 h: thermodynamic from solid
Method: The solubility of carbamic acid (R)-1-(2-chlorophenyl)-2-tetrazol-2-yl)ethyl ester in various aqueous (water) solvent conditions was measured: (1) purified water, (2) pH 1 hydrochloric acid solution, and (3) pH 3 to 8 phosphate buffer solution. Specifically, about 50 mg of carbamic acid (R)-1-(2-chlorophenyl)-2-tetrazol-2-yl)ethyl ester was placed in a suitable glass vial and 15 mL of solvent was added. The mixture was slowly stirred at room temperature for 12 hours on a rotary stirrer to reach equilibrium. Two samples for each aqueous solvent were transferred to a microtube, and centrifuged, and the pH was measured by taking the supernatant. After dilution with diluted solution for analysis, the concentration was analyzed using high performance liquid chromatography under the same conditions as in Experimental Example 1 above.

NC(=O)O[C@@H](Cn1ncnn1)c1ccccc1Cl [carbamic acid (R)-1-(2-chlorophenyl)-2-tetrazol-2-yl)ethyl ester]
Solubility when cyclodextrin compound was added, compared with comparative example without cyclodextrin ([1]; Cavitron or Captisol added, in words): significantly improved | solubility at 6 h ([1]; Captisol 10 % W/V): 12800 µg/mL (≈ 47.8 mM) | solubility at 6 h ([1]; Captisol 15 % W/V): 18000 µg/mL (≈ 67.2 mM) | solubility at 6 h ([1]; Captisol 20 % W/V): 24500 µg/mL (≈ 91.5 mM) | solubility at 6 h ([1]; Captisol 30 % W/V): 32500 µg/mL (≈ 121 mM) | solubility at 6 h ([1]; Captisol 40 % W/V): 45100 µg/mL (≈ 168 mM) | solubility at 6 h ([1]; Captisol (sulfobutyl ether-β-cyclodextrin sodium salt) 5 % W/V): 6700 µg/mL | solubility at 6 h ([1]; Cavitron 10 % W/V): 13200 µg/mL (≈ 49.3 mM) | solubility at 6 h ([1]; Cavitron 15 % W/V): 19800 µg/mL (≈ 74 mM) | solubility at 6 h ([1]; Cavitron 20 % W/V): 27900 µg/mL (≈ 104 mM) | solubility at 6 h ([1]; Cavitron 30 % W/V): 38600 µg/mL (≈ 144 mM) | solubility at 6 h ([1]; Cavitron 40 % W/V): 49500 µg/mL (≈ 185 mM) | solubility at 6 h ([1]; Cavitron (2-hydroxypropyl-β-cyclodextrin) 5 % W/V): 5500 µg/mL (≈ 20.5 mM) | solubility ([1]; Captisol column): 1800 µg/mL (≈ 6.72 mM) | solubility ([1]; Cavitron column): 1800 µg/mL (≈ 6.72 mM) | solubility at 12 h ([2]; pH 1 hydrochloric acid solution, pH 1, simulated gastric fluid, pH 1 hydrochloric acid solution, room temperature, read-out: Concentration (saturation solubility), Mean): 1950 µg/mL (≈ 7.28 mM) | solubility at 12 h ([2]; pH 1 hydrochloric acid solution, pH 1, simulated gastric fluid, pH 1 hydrochloric acid solution, room temperature, read-out: Concentration (saturation solubility), Test solution 1): 1940 µg/mL (≈ 7.25 mM) | solubility at 12 h ([2]; pH 1 hydrochloric acid solution, pH 1, simulated gastric fluid, pH 1 hydrochloric acid solution, room temperature, read-out: Concentration (saturation solubility), Test solution 2): 1970 µg/mL (≈ 7.36 mM) | Effect of change in pH on solubility ([2]; pH 1 to 8 aqueous solvents, in words): not greatly affected by the change in pH | solubility at 12 h ([2]; pH 3.0 phosphate buffer solution, pH 3, aqueous buffer, pH 3.0 phosphate buffer solution, final pH 3.1, room temperature, read-out: Concentration (saturation solubility), Mean): 1870 µg/mL (≈ 6.99 mM) | solubility at 12 h ([2]; pH 3.0 phosphate buffer solution, pH 3, aqueous buffer, pH 3.0 phosphate buffer solution, final pH 3.1, room temperature, read-out: Concentration (saturation solubility), Test solution 1): 1870 µg/mL (≈ 6.99 mM) | solubility at 12 h ([2]; pH 3.0 phosphate buffer solution, pH 3, aqueous buffer, pH 3.0 phosphate buffer solution, final pH 3.1, room temperature, read-out: Concentration (saturation solubility), Test solution 2): 1860 µg/mL (≈ 6.95 mM) | solubility at 12 h ([2]; pH 5.0 phosphate buffer solution, pH 5, aqueous buffer, pH 5.0 phosphate buffer solution, final pH 5.0, room temperature, read-out: Concentration (saturation solubility), Mean): 1910 µg/mL (≈ 7.14 mM) | solubility at 12 h ([2]; pH 5.0 phosphate buffer solution, pH 5, aqueous buffer, pH 5.0 phosphate buffer solution, final pH 5.0, room temperature, read-out: Concentration (saturation solubility), Test solution 1): 1910 µg/mL (≈ 7.14 mM) | solubility at 12 h ([2]; pH 5.0 phosphate buffer solution, pH 5, aqueous buffer, pH 5.0 phosphate buffer solution, final pH 5.0, room temperature, read-out: Concentration (saturation solubility), Test solution 2): 1910 µg/mL (≈ 7.14 mM) | solubility at 12 h ([2]; pH 6.5 phosphate buffer solution, pH 6.5, aqueous buffer, pH 6.5 phosphate buffer solution, final pH 6.6, room temperature, read-out: Concentration (saturation solubility), Mean): 1860 µg/mL (≈ 6.95 mM) | solubility at 12 h ([2]; pH 6.5 phosphate buffer solution, pH 6.5, aqueous buffer, pH 6.5 phosphate buffer solution, final pH 6.6, room temperature, read-out: Concentration (saturation solubility), Test solution 1): 1860 µg/mL (≈ 6.95 mM) | solubility at 12 h ([2]; pH 6.5 phosphate buffer solution, pH 6.5, aqueous buffer, pH 6.5 phosphate buffer solution, final pH 6.6, room temperature, read-out: Concentration (saturation solubility), Test solution 2): 1860 µg/mL (≈ 6.95 mM) | solubility at 12 h ([2]; pH 8.0 phosphate buffer solution, pH 8, aqueous buffer, pH 8.0 phosphate buffer solution, final pH 8.0, room temperature, read-out: Concentration (saturation solubility), Mean): 1810 µg/mL (≈ 6.76 mM) | solubility at 12 h ([2]; pH 8.0 phosphate buffer solution, pH 8, aqueous buffer, pH 8.0 phosphate buffer solution, final pH 8.0, room temperature, read-out: Concentration (saturation solubility), Test solution 1): 1800 µg/mL (≈ 6.72 mM) | solubility at 12 h ([2]; pH 8.0 phosphate buffer solution, pH 8, aqueous buffer, pH 8.0 phosphate buffer solution, final pH 8.0, room temperature, read-out: Concentration (saturation solubility), Test solution 2): 1820 µg/mL (≈ 6.8 mM) | solubility at 12 h ([2]; purified water, pH 6.2, water, Purified water, final pH 6.2, room temperature, read-out: Concentration (saturation solubility), Mean): 1800 µg/mL (≈ 6.72 mM) | solubility at 12 h ([2]; purified water, pH 6.2, water, Purified water, final pH 6.2, room temperature, read-out: Concentration (saturation solubility), Test solution 1): 1800 µg/mL (≈ 6.72 mM) | solubility at 12 h ([2]; purified water, pH 6.2, water, Purified water, final pH 6.2, room temperature, read-out: Concentration (saturation solubility), Test solution 2): 1810 µg/mL (≈ 6.76 mM)
